Earlier results in patent US20240274252A1, “Dosage Calculator” (Closed Loop Medicine Ltd., priority 2023, published 2024).
“And” between values parts separate entries of the source, which are not always exact repeats. Equal values may be shown once. Read-outs that look alike come from different tables or passages of the source.

Experiments:
[1] = model input parameter, FIG. 4A
[2] = for time to peak levels: immediate release
[3] = not given; remark: listed apart in the source
[4] = patient population
[5] = not given; remark: listed apart in the source

[H]/N=C(/N)c1ccc(NCc2nc3cc(C(=O)N(CCC(=O)O)c4ccccn4)ccc3n2C)cc1 [dabigatran]
increase in maximum concentration, Cmax (with Quinidine): 56%
increase in total absorption (with Quinidine): 53%
increase in total exposure (with ketoconazole): ~1.4 fold
increase in total exposure (with verapamil, depending on when the drug is taken): 2.4 fold
Ka, first order drug absorption rate constant [1]: 0.754
Q, intercompartmental clearance [1]: 35.5
Vc, central compartment volume [1]: 673
Vp, peripheral compartment volume [1]: 345
half-life ([2]; elimination after absorption): 12 to 17 h and 12 to 14 h
acyl glucuronides, mean share of parent drug in the plasma ([2]; equally active metabolites): ~10%
time to peak levels ([2]; after food): 3 to 4 h
time to peak levels ([2]; taken without food): approximately 1 hour
PK linearity ([2]; in vivo): linear
mean half-life ([2]; in vivo): 12 h
share of absorbed drug eliminated into urine ([2]; in vivo): 80%
variability in circulating plasma levels ([2]; inter-subject, from prodrug conversion and low GI absorption): up to 50%
remainder of the drug going into the faeces ([2]; oral): ~90%
time of peak absorption ([2]; oral): ~1 h
fraction of the drug absorbed from the GI tract ([2]; oral, after conversion from prodrug dabigatran etexilate): ~5% and 3-7%
increase in availability ([2]; pellets removed from the capsule): 75%
elimination via the kidney, share of total clearance ([2]; primary route of elimination): 80%
total and peak systemic exposure versus dose ([2]; range 50-400 mg twice daily): dose-proportional
delay of the peak by food ([2]; with food, total absorption not affected): ≤ 2 h
Change in Drug Level Exposure (AUC) ([3]; Age, per year older compared to 72 yr): 0.41% increase per year older compared to 72 yr
Change in Drug Level Exposure (AUC) ([3]; Amiodarone co-administration): 12% increase
Change in Drug Level Exposure (AUC) ([3]; CrCl = 30, relative to median CrCl of 69 in RE-LY): 1.8 fold increase
Change in Drug Level Exposure (AUC) ([3]; CrCl = 50, relative to median CrCl of 69 in RE-LY): 1.3 fold increase
decrease in Vd ([3]; Hb above 14.3 g · dL^−1): 4 %/1 g · dL^−1
Change in Drug Level Exposure (AUC) ([3]; PPIs co-administration): ~13% decrease
Change in Drug Level Exposure (AUC) ([3]; South Asians compared to other ethnicities): ~26% increase in South Asians compared to other
Change in Drug Level Exposure (AUC) ([3]; Verapamil co-administration): 23% increase
Change in activity: chance of bleeding ([3]; coadministration of Asprin, clopidogrel): Coadministration will increase chance of bleeding
Change in Drug Level Exposure (AUC) ([3]; covariate Haemoglobin): no effect on AUC
Change in Drug Level Exposure (AUC) ([3]; covariate Weight): Weight had no effect on AUC but increase in distribution
Change in Drug Level Exposure (AUC) ([3]; females compared to men): ~9% increase in females compared to men
effect on Cmax ([3]; low weight): will increase Cmax
Change in Drug Level Exposure (AUC) ([3]; patients with heart failure): ~7% increase in patients with HF
range of trough plasma levels ([4]; 110 mg dose): 25 to 160 ng/mL
range of trough plasma levels ([4]; 150 mg dose): 40 to 220 ng/mL

CCCCCCOC(=O)NC(=N)c1ccc(NCc2nc3cc(C(=O)N(CCC(=O)OCC)c4ccccn4)ccc3n2C)cc1 [Dabigatran etexilate]
risk of intracranial bleeds compared with warfarin ([5]; RELY): small reduction
comparison with warfarin ([5]; phase III RELY study, patients with nonvalvular AF): superior to warfarin
